Data reported in PMC9865645, “The Impact of N^ε-Acryloyllysine Piperazides on the Conformational Dynamics of Transglutaminase 2” (International Journal of Molecular Sciences, 2023).

Biological target: T1, hTGase 2 (Homo sapiens, UniProt P21980)
T1 construct: purchased Zedira (Darmstadt, Germany) T022, lot 0716a
T1 sequence (P21980 1-687): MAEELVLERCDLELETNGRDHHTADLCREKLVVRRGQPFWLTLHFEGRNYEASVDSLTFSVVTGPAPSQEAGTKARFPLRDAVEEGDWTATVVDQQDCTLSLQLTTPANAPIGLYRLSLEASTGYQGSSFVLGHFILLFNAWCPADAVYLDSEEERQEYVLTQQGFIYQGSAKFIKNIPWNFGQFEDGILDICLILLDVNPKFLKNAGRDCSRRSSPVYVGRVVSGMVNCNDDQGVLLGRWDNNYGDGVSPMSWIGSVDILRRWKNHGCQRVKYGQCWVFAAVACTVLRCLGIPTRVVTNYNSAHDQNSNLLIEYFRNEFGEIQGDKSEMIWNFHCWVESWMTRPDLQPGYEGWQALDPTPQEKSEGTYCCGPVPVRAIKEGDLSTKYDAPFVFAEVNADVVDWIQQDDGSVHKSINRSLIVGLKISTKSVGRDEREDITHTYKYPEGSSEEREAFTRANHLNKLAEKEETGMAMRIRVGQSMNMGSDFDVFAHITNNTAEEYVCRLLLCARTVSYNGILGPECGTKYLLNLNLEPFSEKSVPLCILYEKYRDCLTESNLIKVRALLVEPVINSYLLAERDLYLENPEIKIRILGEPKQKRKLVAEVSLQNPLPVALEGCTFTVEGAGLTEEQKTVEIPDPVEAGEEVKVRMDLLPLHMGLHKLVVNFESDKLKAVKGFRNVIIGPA
Experiment: switchSENSE dynamic mode: upward motion (relative inverse slope, friction) of hTGase 2-dsDNA lever
Conditions: GTPγS 20 nM or Ca^2+ 1 mM; non-directed and His-tag-directed labeling
Procedure: Prior to the measurement of the switching kinetics of the differently conjugated hTGase 2, a complementary ssDNA without the enzyme (500 nM) was hybridized to the single-stranded capture strands on the chip electrodes to obtain the reference kinetics of the dsDNA lever. In addition, to determine the impact of CaCl2 and DMSO on the movement of the bare dsDNA lever, and thus on reference kinetics, its switching behavior was investigated in TE40, TE40 + 1 mM CaCl2, TE40 + 1 mM CaCl2 + 1% DMSO or TE40 + 1 mM CaCl2 + 0.1% DMSO.
Then, the dehybridization of the reference lever occurred during a regeneration step followed by the hybridization with an ssDNA-hTGase 2 conjugate (500 nM). Thereafter, the switching kinetics was recorded. […]
The impact on the hydrodynamic drag of the hTGase 2-functionalized lever was investigated under identical conditions for the three irreversible inhibitors 1–3: At first, the switching kinetics of the dsDNA lever and the hTGase 2-dsDNA conjugates were recorded. Secondly, the switching kinetics of the hTGase 2-dsDNA conjugates during and after Ca^2+ exposure were recorded using TE40 + 1 mM CaCl2 or TE40, respectively. […] In this process, the hydrodynamic drag was analyzed during the exposure to 10 µM inhibitor (for 6 min) dissolved in TE40 + 1 mM CaCl2 + 0.1% DMSO and to TE40 afterward. […]

relative inverse slope of hTGase 2-dsDNA lever versus pure buffer without effector: significantly smaller
Structure (SMILES): Nc1nc2c(ncn2[C@@H]2O[C@H](COP(=O)(O)OP(=O)(O)OP(O)(O)=S)[C@@H](O)[C@H]2O)c(=O)[nH]1 [GTPγS]
